The record followed here is patent US9156796B2, “Benzoimidazole-carboxylic acid amide derivatives as APJ receptor modulators” (SANOFI, priority 2013, dated 2015).

SMILES strings stand for the structures.

The test addresses T1, human apelin receptor (Homo sapiens, UniProt P35414).
T1 construct: expressed in transfected cells
T1 sequence (P35414 1-380): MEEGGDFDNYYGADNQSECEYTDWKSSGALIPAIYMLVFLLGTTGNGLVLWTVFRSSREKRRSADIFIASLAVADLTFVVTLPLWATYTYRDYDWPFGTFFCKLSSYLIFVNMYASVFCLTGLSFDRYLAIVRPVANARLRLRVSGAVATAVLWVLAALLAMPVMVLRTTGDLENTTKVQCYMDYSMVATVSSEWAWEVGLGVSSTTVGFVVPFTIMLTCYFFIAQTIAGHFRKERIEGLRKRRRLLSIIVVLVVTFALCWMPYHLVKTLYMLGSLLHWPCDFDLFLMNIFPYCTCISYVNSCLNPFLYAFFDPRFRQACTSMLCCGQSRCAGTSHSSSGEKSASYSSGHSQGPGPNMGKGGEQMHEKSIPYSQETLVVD
Description: Determination of agonism on the human apelin receptor by a calcium fluorescence assay (FLIPR). The settings on record: HEK293 cells stably transfected with human apelin receptor and Giaq protein, Fluo-4 calcium fluorescence, read-out: EC50 (APJ agonism). The class given is cell-based. A digest of the protocol: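 HEK293 cells stably co-expressing human apelin receptor and promiscuous Giaq, loaded 1 h at 37 °C with Fluo-4 (4 μM) in probenecid-containing Hepes buffer, pH 7.4. Compounds, at least 7 concentrations in triplicate, added in FLIPR Tetra; peak calcium fluorescence normalized to 1 μM apelin-13 as 100% to derive EC50.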
What is called EC50 is the concentration at which the effect is half-maximal. As for `CCC(CC)n1c(Cc2cccs2)nc2cc(C(=O)N[C@@H](CC(C)C)[C@@H](O)CC(=O)O)ccc21` [Example 75, (3S,4S)-4-{[1-(1-Ethyl-propyl)-2-thiophen-2-ylmethyl-1H-benzoimidazole-5-carbonyl]-amino}-3-hydroxy-6-methyl-heptanoic acid], the half-maximal effective concentration (EC50) was found to be 0.066 µM.
For the molecule `CCC(CC)n1c(Cc2cccs2)nc2cc(C(=O)N[C@@H](CC(C)C)C(=O)N3CCC(OC(C)C)CC3)ccc21` [Example 375, 1-(1-Ethyl-propyl)-2-thiophen-2-ylmethyl-1H-benzoimidazole-5-carboxylic acid [(S)-1-(4-isopropoxy-piperidine-1-carbonyl)-3-methyl-butyl]-amide], the 50% effective concentration (EC50) is 2.88 µM.
To `CCC(CC)n1c(Cc2cccs2)nc2cc(C(=O)NC(CCC(F)(F)F)C(=O)O)ccc21` (centres unmarked) [Example 26, 2-{[1-(1-Ethyl-propyl)-2-thiophen-2-ylmethyl-1H-benzoimidazole-5-carbonyl]-amino}-5,5,5-trifluoro-pentanoic acid] belongs 5.3 µM.
With `CCC(CC)n1c(Cc2cccs2)nc2cc(C(=O)N[C@@H](CC(C)C)C(=O)NCCCN3CCCC3)ccc21` [Example 241, 1-(1-Ethyl-propyl)-2-thiophen-2-ylmethyl-1H-benzoimidazole-5-carboxylic acid [(S)-3-methyl-1-(3-pyrrolidin-1-yl-propylcarbamoyl)-butyl]-amide] the figure was 0.257 µM; with `CC(C)C[C@H](NC(=O)c1ccc2c(c1)nc(Cc1cccs1)n2C1CCCCC1C)C(=O)N(C)C` (stereo partly drawn) [Example 216, 1-(2-Methyl-cyclohexyl)-2-thiophen-2-ylmethyl-1H-benzoimidazole-5-carboxylic acid ((S)-1-dimethyl-carbamoyl-3-methyl-butyl)-amide], 1.73 µM.
With `CCC(CC)n1c(CC2CCCC2)nc2cc(C(=O)N[C@H](CO)CC3CCCCC3)ccc21` [Example 167, 2-Cyclopentylmethyl-1-(1-ethyl-propyl)-1H-benzoimidazole-5-carboxylic acid ((S)-1-cyclohexylmethyl-2-hydroxy-ethyl)-amide], the EC50 was determined as 7.55 µM.
To `CC(C)C[C@H](NC(=O)c1ccc2c(c1)nc(Cc1cccs1)n2C1CCCC1C)C(=O)O` (single isomer, unassigned) [Example 430] belongs 1.31 µM; to `CCC(CC)n1c(Cc2cccs2)nc2cc(C(=O)N[C@@H](CC(C)C)C(=O)NCCc3n[nH]c(=O)[nH]3)ccc21` [Example 406, 1-(1-Ethyl-propyl)-2-thiophen-2-ylmethyl-1H-benzoimidazole-5-carboxylic acid {(S)-3-methyl-1-[2-(5-oxo-4,5-dihydro-1H-[1,2,4]triazol-3-yl)-ethylcarbamoyl]-butyl}-amide], 1.11 µM; to `CCC(CC)n1c(Cc2cccs2)nc2cc(C(=O)N[C@@H](CC(C)C)C(=O)NC3CCN(CC4CCCCC4)CC3)ccc21` [Example 344, 1-(1-Ethyl-propyl)-2-thiophen-2-ylmethyl-1H-benzoimidazole-5-carboxylic acid [(S)-1-(1-cyclohexylmethyl-piperidin-4-ylcarbamoyl)-3-methyl-butyl]-amide], 1.69 µM.
To `CCCC(CO)NC(=O)c1ccc2c(c1)nc(Cc1cccs1)n2C(CC)CC` (centres unmarked) [Example 196, 1-(1-Ethyl-propyl)-2-thiophen-2-ylmethyl-1H-benzoimidazole-5-carboxylic acid (1-hydroxymethyl-butyl)-amide] belongs 0.922 µM; to `CCC(CC)n1c(Cc2cccs2)nc2cc(C(=O)N[C@@H](CC(C)C)C(=O)N3CCC(N4CCCC(C)C4)CC3)ccc21` (stereo partly drawn) [Example 281, 1-(1-Ethyl-propyl)-2-thiophen-2-ylmethyl-1H-benzoimidazole-5-carboxylic acid [(S)-3-methyl-1-(3-methyl-[1,4′]bipiperidinyl-1′-carbonyl)-butyl]-amide], 1.21 µM; to `CCCC[C@H](NC(=O)c1ccc2c(c1)nc(Cc1cccs1)n2C1CCCCC1C)C(=O)O` (single isomer, unassigned) [Example 421], 20 µM.
On to `CCC(CC)n1c(CC2CCCC2)nc2cc(C(=O)N[C@H](CC(=O)O)CC(C)C)ccc21` [Example 158, (S)-3-{[2-Cyclopentylmethyl-1-(1-ethyl-propyl)-1H-benzoimidazole-5-carbonyl]-amino}-5-methyl-hexanoic acid], for which the EC50 was 0.515 µM.
To `CCC(CC)n1c(Cc2cccs2)nc2cc(C(=O)N[C@@H](CC(C)C)C(=O)N3CCC(N4CCCCCC4)CC3)ccc21` [Example 335, 1-(1-Ethyl-propyl)-2-thiophen-2-ylmethyl-1H-benzoimidazole-5-carboxylic acid [(S)-1-(4-azepan-1-yl-piperidine-1-carbonyl)-3-methyl-butyl]-amide] belongs 0.384 µM; to `CCC[C@H](NC(=O)c1ccc2c(c1)nc(Cc1cccs1)n2C(CC)CC)C(=O)O` [Example 94, (S)-2-{[1-(1-Ethyl-propyl)-2-thiophen-2-ylmethyl-1H-benzoimidazole-5-carbonyl]-amino}-pentanoic acid], 0.781 µM; to `CCC(CC)n1c(Cc2cccs2)nc2cc(C(=O)N[C@@H](CC(C)C)C(=O)N3CC4CC3CN4Cc3ccc(OC)cc3)ccc21` (stereo partly drawn) [Example 351, 1-(1-Ethyl-propyl)-2-thiophen-2-ylmethyl-1H-benzoimidazole-5-carboxylic acid {(S)-1-[5-(4-methoxy-benzyl)-2,5-diaza-bicyclo[2.2.1]heptane-2-carbonyl]-3-methyl-butyl}-amide], 9.29 µM.
`CCCCC(CC(=O)O)NC(=O)c1ccc2c(c1)nc(Cc1cccs1)n2C(CC)CC` (single isomer, unassigned) [Example 453]: the half-maximal effective concentration (EC50) worked out at 0.781 µM.
With `CC(C)C[C@@H](CC(=O)O)NC(=O)c1ccc2c(c1)nc(Cc1cccs1)n2C1CCCCC1C` (single isomer, unassigned) [Example 438], the EC50 amounted to 0.661 µM.
As to `C[C@@H]1CCCC[C@H]1n1c(Cc2cccs2)nc2cc(C(=O)NC3(C(=O)O)CCCCC3)ccc21` [Example 38, 1-{[1-((1R,2R)-2-Methyl-cyclohexyl)-2-thiophen-2-ylmethyl-1H-benzoimidazole-5-carbonyl]-amino}-cyclohexanecarboxylic acid], the EC50 amounted to 0.115 µM.
With `CCC(CC)n1c(Cc2cccs2)nc2cc(C(=O)N[C@@H](CC(C)C)C(=O)NC3COC4(CCCC4)C3)ccc21` (stereo partly drawn) [Example 398, 1-(1-Ethyl-propyl)-2-thiophen-2-ylmethyl-1H-benzoimidazole-5-carboxylic acid [(S)-3-methyl-1-(1-oxa-spiro[4.4]non-3-ylcarbamoyl)-butyl]-amide] the figure was 5.46 µM; with `CCC(CC)n1c(Cc2cccs2)nc2cc(C(=O)N[C@@H](CC3CCC3)C(=O)O)ccc21` [Example 22, (S)-3-Cyclobutyl-2-{[1-(1-ethyl-propyl)-2-thiophen-2-ylmethyl-1H-benzoimidazole-5-carbonyl]-amino}-propionic acid], 0.08 µM.
Consider `CC(C)C[C@@H](CC(=O)O)NC(=O)c1ccc2c(c1)nc(Cc1ccco1)n2C1CCCCC1C` (single isomer, unassigned) [Example 435], for which the EC50 was found to be 0.226 µM.
With `CCC(CC)n1c(Cc2cccs2)nc2cc(C(=O)N[C@@H](CC(C)C)C(=O)N3CCC[C@@H]3COC)ccc21` [Example 365, 1-(1-Ethyl-propyl)-2-thiophen-2-ylmethyl-1H-benzoimidazole-5-carboxylic acid [(S)-1-((R)-2-methoxymethyl-pyrrolidine-1-carbonyl)-3-methyl-butyl]-amide] the figure was 2.75 µM.
